Test results as given in US10695296B2, “Formulations, methods, kit, and dosage forms for improved stability of an active pharmaceutical ingredient” (Asana BioSciences, LLC, priority 2017, dated 2020).
Values joined by “and” are separate entries in the source; they are usually repeats but may differ in a detail not shown here. Equal entries are not always repeated. Where two headings read alike, the source gives them in different places.

Assay: PK characteristics in humans (plasma, LC/MS/MS)
Type: in vivo, human
Conditions: for accumulation: cancer patients; for dose dependence of Cmax and AUC: 10-400 mg QD and 400 mg BID; for half-life: read-out: T1/2 (converted)
Method: A pharmaceutical formulation of the disclosure comprising the active ingredient N-(3-(2-(6-amino-4-(trifluoromethyl)pyridin-3-yl)-4-morpholinopyrido[3,2-d]pyrimidin-6-yl)-2-fluorophenyl)-3-fluoropropane-1-sulfonamide was evaluated for safety/tolerability and preliminary efficacy in eligible human subjects with advanced solid tumors, and the pharmacokinetic (PK) profile of the active ingredient was investigated for each subject. Eligibility criteria for inclusion in this study included:
Fifteen eligible patients were enrolled in total daily dose levels ranging from 10-800 mg per day of the active ingredient, provided as 10-mg, 20-mg, 80-mg and 120-mg tablets for oral administration. Dose escalation is ongoing. All study medication supplies were provided by Asana BioSciences, LLC (Bridgewater, N.J.). The tablets were administered orally every 12-24 hours on an empty stomach (either 1 hour before or 2 hours after a meal or snack) with approximately 240 mL of water. On study days in which there was a single plasma PK sample taken, the subject was instructed to fast for at least 2 hours prior to collection of the PK sample. On study days with multiple plasma PK samples taken, the subject was instructed to fast overnight (at least 8 hours prior to study drug administration) and remain fasting for 2 hours after study drug administration. The date and time of the dose(s) taken prior to or on PK sampling days were collected by the study site or catalogued via a diary card provided to the subject.
An ultra performance liquid chromatographic method was used for the determination of the active ingredient in human EDTA K2 plasma. This method was validated over an analytical range of 0.5 to 500 ng/mL. Calibration standards (CS) and quality control (QC) samples at three or four levels of concentrations were prepared fresh from the appropriate working solutions which were stored at −20° C. The human EDTA K2 plasma used for the preparation of CS and QC samples was obtained from Bioreclamation (Westbury, Pa., USA) and analyzed to determine possible interference with the analyte or the internal standard, and no significant interference was observed. The following parameters were used to determine analyte levels in the plasma samples: […]

[1] = Day 1, 40 mg, individual subjects
[2] = Day 1, 80 mg, individual subjects
[3] = Day 1, 240 mg, individual subjects
[4] = Day 1, 400 QD mg, individual subjects
[5] = Day 1, 400 bid mg, individual subjects
[6] = Day 15, 40 mg, individual subjects
[7] = Day 15, 80 mg, individual subjects
[8] = Day 15, 240 mg, individual subjects
[9] = Day 15, 400 QD mg, individual subjects
[10] = human subjects, listed as active ingredient

Nc1cc(C(F)(F)F)c(-c2nc(N3CCOCC3)c3nc(-c4cccc(NS(=O)(=O)CCCF)c4F)ccc3n2)cn1 [CMPD A, N-(3-(2-(6-amino-4-(trifluoromethyl)pyridin-3-yl)-4-morpholinopyrido[3,2-d]pyrimidin-6-yl)-2-fluorophenyl)-3-fluoropropane-1-sulfonamide]
accumulation (BID administration): ~3 fold
AUC0-24 [1]: 1400 ng·h/mL and 5510 ng·h/mL
Cmax [1]: 96.2 ng/mL and 289 ng/mL
T1/2 [1]: 17.6 h
AUC0-24 [2]: 8090 ng·h/mL and 4010 ng·h/mL
Cmax [2]: 300 ng/mL
Tmax [2]: 24 h
AUC0-24 [3]: 9560 ng·h/mL and 4300 ng·h/mL
Cmax [3]: 744 ng/mL and 295 ng/mL
T1/2 [3]: 23.9 h and 11.0 h
AUC0-24 [4]: 3200 ng·h/mL and 26700 ng·h/mL
Cmax [4]: 264 ng/mL and 1870 ng/mL
T1/2 [4]: 15.6 h
AUC0-24 [5]: 20400 ng·h/mL
Cmax [5]: 1430 ng/mL
T1/2 [5]: 15.0 h
RAUCtau (Day 15, 10 mg, n=1): 1.5
RCmax (Day 15, 10 mg, n=1): 1.3
RAUCtau (Day 15, 20 mg, n=1): 2.1
RCmax (Day 15, 20 mg, n=1): 1.5
AUC0-24 [6]: 2580 ng·h/mL and 9190 ng·h/mL
Cmax [6]: 173 ng/mL and 523 ng/mL
RAUCtau [6]: 1.9 and 2.3
RCmax [6]: 1.8, 1.8
T1/2 [6]: 22.5 h and 47.8 h
AUC0-24 [7]: 21300 ng·h/mL
Cmax [7]: 1179 ng/mL
RAUCtau [7]: 2.4 and 5.3
RCmax [7]: 2.0 and 4.0
Tmax [7]: 24 h
RAUCtau (Day 15, 120 mg, n=3, range): 1.2-1.9
RCmax (Day 15, 120 mg, n=3, range): 0.8-2.4
AUC0-24 [8]: 26000 ng·h/mL and 3740 ng·h/mL
Cmax [8]: 1610 ng/mL and 299 ng/mL
RAUCtau [8]: 2.7 and 0.9
RCmax [8]: 2.2 and 1.0
T1/2 [8]: 29.0 h and 10.3 h
Tmax [8]: (2, 2) hr
AUC0-24 [9]: 41300 ng·h/mL
Cmax [9]: 2930 ng/mL
RAUCtau [9]: 8.0 and 1.55
RCmax [9]: 10.5 and 1.57
T1/2 [9]: 11.7 h
Tmax [9]: 1 h
RAUCtau (Day 15, 400 bid mg, n=1): 3.76
RCmax (Day 15, 400 bid mg, n=1): 2.53
accumulation (QD administration): ~2 fold
variability of pharmacokinetic parameters (human subjects): Moderate to high inter-and intra-subject variability
dose dependence of Cmax and AUC (human subjects): Dose-dependent Cmax and AUC
dose dependence of Cmax and AUC [10]: generally dose-dependent Cmax and AUC
accumulation in AUC at steady state (human subjects, oral tablets): approximately 2 fold
t1/2 (rate of elimination) (human subjects, oral tablets): Moderate rate of elimination (t1/2 10-25 hours)
variability of pharmacokinetic parameters [10]: moderate inter-subject variability
AUC(0-t) (human, plasma, oral, 10 mg, Day 1, 10 mg, n=1, read-out: AUC0-24): 622 ng·h/mL
Cmax (human, plasma, oral, 10 mg, Day 1, 10 mg, n=1, read-out: Cmax): 58 ng/mL
half-life (human, plasma, oral, 10 mg, Day 1, 10 mg, n=1): 16.1 h
Tmax (human, plasma, oral, 10 mg, Day 1, 10 mg, n=1, read-out: Tmax): 4 h
AUC(0-t) (human, plasma, oral, 10 mg, Day 15, 10 mg, n=1, read-out: AUC0-24): 912 ng·h/mL
Cmax (human, plasma, oral, 10 mg, Day 15, 10 mg, n=1, read-out: Cmax): 74 ng/mL
Tmax (human, plasma, oral, 10 mg, Day 15, 10 mg, n=1, read-out: Tmax): 4 h
AUC(0-t) (human, plasma, oral, 10 mg, steady state, 10 QD mg, n=1, cancer patients, read-out: AUC0-24h): 912 ng·h/mL
Cmax (human, plasma, oral, 10 mg, steady state, 10 QD mg, n=1, cancer patients, read-out: Cmax): 74 ng/mL
Tmax (human, plasma, oral, 10 mg, steady state, 10 QD mg, n=1, cancer patients, read-out: Tmax): 4 h
AUC(0-t) (human, plasma, oral, 20 mg, Day 1, 20 mg, n=1, read-out: AUC0-24): 1480 ng·h/mL
Cmax (human, plasma, oral, 20 mg, Day 1, 20 mg, n=1, read-out: Cmax): 101 ng/mL
half-life (human, plasma, oral, 20 mg, Day 1, 20 mg, n=1): 13.7 h
Tmax (human, plasma, oral, 20 mg, Day 1, 20 mg, n=1, read-out: Tmax): 8 h
AUC(0-t) (human, plasma, oral, 20 mg, Day 15, 20 mg, n=1, read-out: AUC0-24): 3160 ng·h/mL
Cmax (human, plasma, oral, 20 mg, Day 15, 20 mg, n=1, read-out: Cmax): 149 ng/mL
half-life (human, plasma, oral, 20 mg, Day 15, 20 mg, n=1): 127 h
Tmax (human, plasma, oral, 20 mg, Day 15, 20 mg, n=1, read-out: Tmax): 8 h
AUC(0-t) (human, plasma, oral, 20 mg, steady state, 20 QD mg, n=1, cancer patients, read-out: AUC0-24h): 3160 ng·h/mL
Cmax (human, plasma, oral, 20 mg, steady state, 20 QD mg, n=1, cancer patients, read-out: Cmax): 149 ng/mL
Tmax (human, plasma, oral, 20 mg, steady state, 20 QD mg, n=1, cancer patients, read-out: Tmax): 8 h
half-life (human, plasma, oral, 40 mg, Day 1, 40 mg, individual subjects): 18.2 h
AUC(0-t) (human, plasma, oral, 40 mg, Day 1, 40 mg, n=2, mean, read-out: AUC0-24): 2670 ng·h/mL
Cmax (human, plasma, oral, 40 mg, Day 1, 40 mg, n=2, mean, read-out: Cmax): 192 ng/mL
half-life (human, plasma, oral, 40 mg, Day 1, 40 mg, n=2, mean): 17.9 h
Tmax (human, plasma, oral, 40 mg, Day 1, 40 mg, n=2, mean, read-out: Tmax): 5 h
Tmax (human, plasma, oral, 40 mg, Day 15, 40 mg, individual subjects, read-out: Tmax): 4 h
AUC(0-t) (human, plasma, oral, 40 mg, Day 15, 40 mg, n=2, mean, read-out: AUC0-24): 5890 ng·h/mL
